# Reference: ChEMBL document CHEMBL1134939, “A survey of cyclic replacements for the central diamide moiety of inhibitors of inosine monophosphate dehydrogenase” (Bioorg Med Chem Lett, 2002)
# Molecular target: T1, Inosine-5'-monophosphate dehydrogenase 2 (Homo sapiens, UniProt P12268)
# Assay: Inhibition of Inosine Monophosphate Dehydrogenase II (IMPDH II)
row,IC50,SMILES
1,120 nM,COc1cc(Nc2cc(-c3ccccc3)on2)ccc1-c1cnco1
2,190 nM,COc1cc(Nc2nnc(-c3ccccc3)[nH]2)ccc1-c1cnco1
3,300 nM,COc1cc(Nc2nc(-c3ccccc3)cs2)ccc1-c1cnco1
4,110 nM,COc1cc(-c2ccccc2)nc(Nc2ccc(-c3cnco3)c(OC)c2)n1
5,59 nM,COc1cc(Nc2noc(-c3ccccc3)n2)ccc1-c1cnco1

# Second part, the compound before the results:
row,SMILES,IC50
1,COc1cc(Nc2nnc(-c3ccccc3)s2)ccc1-c1cnco1,330 nM
2,COc1cc(Nc2nnc(-c3ccccc3)o2)ccc1-c1cnco1,44 nM
3,COc1cc(Nc2cnc(-c3ccccc3)s2)ccc1-c1cnco1,760 nM
4,COc1cc(NC2=NCC(c3ccccc3)O2)ccc1-c1cnco1 (stereo unspecified),110 nM

# Molecular target: T1, Inosine-5'-monophosphate dehydrogenase 2
# Assay: Inhibitory concentration required against Inosine Monophosphate Dehydrogenase II (IMPDH II) was determined in vitro at a concentration 100 uM
row,inhibition,SMILES
1,7%,COc1cc(Nc2nc(-c3ccccc3)c[nH]2)ccc1-c1cnco1

# Molecular target: T1, Inosine-5'-monophosphate dehydrogenase 2
# Assay: Inhibitory concentration required against Inosine Monophosphate Dehydrogenase II (IMPDH II) was determined in vitro at a concentration 500 uM
row,inhibition,SMILES
1,30%,COc1cc(Nc2cccc(-c3ccccc3)c2)ccc1-c1cnco1
